Data taken from patent publication US20250387360A1, “Methods and Compositions for Treatment of Addiction” (University of Connecticut, priority 2024, published 2025).
“Also recorded” adds a separate entry of the source.

Tests used:
Format in all cases: in vivo, mouse
female mice = assay: 4-day DID regimen in young female mice; conditions: n=7/group, same DID protocol, vs vehicle control
Method: (§1) A standard 4-day drinking in the dark (DID) model was used to evaluate binge-like ethanol drinking patterns in mice. A 20% v/v ethanol solution was prepared by diluting 190-proof ethyl alcohol (Sigma, MO, U.S.A) with deionized water. During days 1-3, the water bottles were temporarily removed during the dark cycle of the mice, and the mice were provided with a tube containing the 20% v/v ethanol solution for a duration of two hours. On day four, the assessment of binge-like ethanol consumption took place, where the mice were given access to the 20% v/v ethanol solution for a period of four hours. The volume of fluid in the tube (read to the closest 100 μL) was measured immediately upon placement, and at two hours and four hours into the test. Following the completion of the four hours test, approximately 100 μL of blood was collected through cardiac puncture after CO2 euthanasia. Blood samples were subjected to centrifugation at 10,000 rpm for 10 minutes. The determination of blood ethanol concentrations (BEC) was performed using an Analox AMI Analyzer (Analox Instruments, MA, U.S.A). The quantity of ethanol consumed was then calculated as grams per kilogram of the mouse's body weight.

male C57BL/6J mice = assay: 4-day DID binge-like ethanol drinking with SCFA supplementation in drinking water; conditions: 200 mM in drinking water 10 days, male mice n=21/group
Excerpt: (§2) Male C57BL/6J mice, (RRID: IMSR_JAX: 000664), aged 6-8 weeks, were obtained from Jackson Laboratories (ME, U.S.A) for the study. The mice were housed individually under a reversed 12-hours light/dark cycle, with lights off from […] to 7:00 am. A minimum acclimation period of 2 weeks was provided for all animals before they were randomly assigned to their respective groups. Mice had free access to food (Irradiated chow, Teklad global 18% protein rodent diet, 2918, Inotiv, WI, U.S.A) and deionized water to acclimate to the testing environment. Body weight and daily food and fluid intake were monitored and noted for all animal experiments.
as §1
All SCFA were used in sodium salt form. Briefly, sodium acetate (Sigma, MO, U.S.A), sodium butyrate (Sigma, MO, U.S.A), sodium valerate (Ambeed, IL, U.S.A), and sodium chloride (NaCl; Sigma, Mo, U.S.A) were prepared at 200 mM concentration freshly in drinking water every two days. These concentrations were chosen based on earlier studies conducted in mice [Qi Y., et al., Sodium acetate regulates milk fat synthesis through the activation of GPR41/GPR43 signaling pathway. Frontiers in nutrition 2023, 10:1098715; Daien C I, et al., Gut-derived acetate promotes B10 cells with anti-inflammatory effects. JCI insight 2021, 6 (7)]. All SCFA and NaCl solutions were pH verified to control for acidity effects on daily consumption. SCFAs were given to mice via oral drinking for 10 consecutive days before any experiment, and this regimen was maintained throughout the entire experiment.
General statistical analysis (non-microbiome and non-RNAseq analysis) were conducted using GraphPad Prism 8 (GraphPad, CA, USA, RRID:SCR_002798). For the calculation of ethanol consumption during the DID procedure, it was expressed as grams of ethanol per kilogram of body weight (g/kg body weight), where 20% ethanol intake was determined as follows: multiplying the drinking volume by the ethanol percentage within that volume and the density of ethanol, and then dividing this by the mouse's body weight in kilograms. Normality of data distributions was tested by Shapiro-Wilk test and by Q-Q plots. Levene's test was used to test equality of variances across groups. Unpaired Student's t-tests were used to compare behavioral testing, GABA levels, and histone acetylation measurements between the sodium valerate and NaCl groups. To evaluate the impact of antibiotic cocktail administration on ethanol consumption and BEC between the groups receiving Abx and PBS at baseline and after treatment, a mixed ANOVA test was employed, given repeated measures from the same mouse from the two time points. Similarly, mixed ANOVA tests were applied to compare various SCFA levels before and after Abx administration.

male mice = assay: Dosage dependent, short-term sodium valerate in 4-day DID regimen; conditions: day 1 to day 4, n=7/group, vs vehicle
Method: Different dosages of sodium valerate ranging from 20 mM to 200 mM were tested in male mice (n=7/group, 6-8 weeks old) using a 4-day DID regimen. Different dosages of sodium valerate were given through drinking water 30 min before the 2-hour drinking exposure at Day 1 and continued to day 4 except the drinking hours.
as §1, with “The determination of blood ethanol concentrations (BEC) was performed using an Analox AMI Analyzer (Analox Instruments, MA, U.S.A).” left out, “weight. […]” for “weight.”

[1] = tested on: acetylation of histone H3 and H4 in the amygdala; assay: Histone H3 and H4 acetylation ELISA in amygdala; conditions: n=7 mice/group, vs NaCl
Method: Amygdala samples were thawed, and the histone fractions were prepared using a commercial histone extraction kit (Abcam, Cambridge, UK) following manufacturers instruction. The bulk acetylation of histone H3 and H4 was determined using commercial ELISA kits according to the manufacturer's instructions (Abcam, Cambridge, UK). The OD of the samples was measured using a 96 well plate reader at 450 nm (iMark™ Microplate Absorbance Reader; Biorad, CA, USA). The amounts of acetyl histone H3 and H4 were measured by comparing to the kit supplied standards.
The total acetylation levels of histone H3 and H4 were quantified in the amygdala of mice subjected to the DID paradigm following supplementation with sodium valerate or NaCl (n=7 mice/group).

[2] = Daily body weight, food and fluid intake monitoring; conditions: 10-day supplementation
Excerpt: as §2
The food intake was assessed by providing a pre-weighed amount of food in their cage hopper and then weighing the remaining food inside the cage and in the hopper daily. To assess daily fluid intake, the sodium valerate and NaCl bottles were pre-weighed, and the remaining amount was deducted after the measurement period. Food and fluid intakes were normalized to mouse body weight by dividing the average intake by the average body weight.

gut microbiome = assay: 16S rRNA sequencing of stool and gut-brain module analysis; conditions: stool
Method: Microbial genomic DNA extraction from mouse stool samples was carried out using the Quick-DNA Fecal/Soil Microbe 96 Kit (Zymo Research, CA, U.S.A) following the manufacturer's protocols. The hypervariable region V4 of the bacterial 16S rRNA gene, 515F (5′-[sequence]-3′ (SEQ ID NO: 1)) and 806R (5′-[sequence]-3′ (SEQ ID NO: 2)) was amplified and sequenced on the Illumina MiSeq platform (2×250 bp) (Illumina, CA, U.S.A). The raw sequencing reads were processed via the DADA2 V1.16 (RRID:SCR_023519) data processing pipeline to generate amplicon sequence variants (ASVs). Taxonomic assignments were made using the Silva database V138.1 (RRID:SCR_006423), with a classification confidence threshold set at p<0.5 for assigning unclassified taxa at their respective taxonomical levels. PCR negative controls and extraction controls for DNA extraction and sequencing were included in the analysis. […] Sequencing reads from all the samples were rarified to 10,000 reads per sample. […] All of the microbiome analysis was done in R.
16S rRNA gene sequencing of stool samples collected before and after sodium valerate treatment (n=7 mice/group) was performed. […] Permutational multivariate analysis of variance (PERMANOVA) tests were performed on CLR-transformed data to test for beta-diversity differences between sodium valerate and NaCl-supplemented groups (n=14 mice/group).

CCCCC(=O)[O-].[Na+] [sodium valerate]
alcohol binge drinking in female mice (female mice): significantly reduced
blood ethanol levels in female mice (female mice): significantly reduced
BEC lowered (male C57BL/6J mice; vs NaCl): 53%
reduction in ethanol consumption (male C57BL/6J mice; vs NaCl): 40%
ethanol consumption, median (male C57BL/6J mice; NaCl control 7.16): 4.03 g/kg body weight
alcohol intake, 100 mM (male mice; 100 mM in drinking water 30 min before alcohol exposure): significantly decreased; also recorded: reduce drinking significantly
alcohol intake, 200 mM (male mice; 200 mM in drinking water 30 min before alcohol exposure): significantly decreased; also recorded: reduce drinking significantly
increase in H3 acetylation in the amygdala [1]: not statistically significant
H4 acetylation in the amygdala ([1]; p<0.01): significantly increased
body weight vs NaCl group ([2]; n=10 mice/group): did not differ significantly; also recorded: did not affect
fluid intake (intake of sodium valerate and NaCl) vs NaCl group ([2]; n=14 mice/group): no statistical difference; also recorded: did not affect
food consumption vs NaCl group ([2]; n=14 mice/group): no statistical difference; also recorded: did not affect
abundance of Ileibacterium genera (gut microbiome; 10 days supplementation, adjusted p=0.24, unadjusted p=0.004): increase in abundance
beta-diversity between sodium valerate and NaCl groups (gut microbiome; after 10 days of supplementation, PERMANOVA/PCA): increased dissimilarity
Dubosiella abundance, log2Fold change (gut microbiome; after 10 days supplementation, DESeq2, adjusted p=9.46E-5): 7.84
